Results from patent US9901592B2 (priority 2008, dated 2018).
≈ marks a conversion by molar mass, not a printed value. Where “and” joins values, the source holds several entries; their conditions need not be identical. Identical values can stand only once. Like-named read-outs stand apart in the source and are kept apart here.

Key:
[1] = test system: N. meningitidis; assay: MIC, CLSI broth microdilution, invasive isolates; format: cell-based; details: for % Susc. / % Res.: CLSI (M100-S19, 2009) criteria; for MIC / MIC50 / MIC90: Neisseria meningitidis
Experimental: Example. […] Colonization of the nasopharynx (NP) by NM can lead to invasive meningococcal disease. Chemoprophylaxis is used to eradicate NP colonization and prevent transmission to nonimmune contacts. […] 62 isolates (91.9% blood culture) of NM were collected from 29 medical centers in North and South America and Europe (1997-2008). […] Serological identification was performed for serogroups (SGs) B, C, Y and W135.

[2] = test system: S. pneumoniae; assay: microbe, parasite or virus in culture; format: cell-based; details: for MIC90: Streptococcus pneumoniae
[3] = test system: M. fermentans; format: cell-based; details: M. fermentans (15 isolates); for MIC50 / MIC90: Mycoplasmopsis fermentans
[4] = test system: M. hominis; format: cell-based
[5] = test system: M. genitalium; format: cell-based; details: M. genitalium (5 isolates)
[6] = test system: U. urealyticum; assay: MIC testing in 10B broth (colour change); format: cell-based; details: for MIC Range / MIC50 / MIC90: U. urealyticum (10 isolates)
[7] = test system: U. parvum; assay: MIC testing in 10B broth (colour change); format: cell-based, Ureaplasma parvum; details: for MIC Range / MIC50 / MIC90: U. parvum (10 isolates); for MIC50 / MIC90: Ureaplasma parvum; for MIC50: read-out: MIC50; for MIC90: read-out: MIC90
[8] = test system: M. pneumoniae; assay: microbe, parasite or virus in culture; format: cell-based; details: for MIC50 / MIC90: Mycoplasmoides pneumoniae
[9] = test system: S. pneumoniae; format: cell-based
[10] = test system: S. aureus; format: cell-based
[11] = test system: M. catarrhalis; assay: microbe, parasite or virus in culture; format: cell-based
[12] = test system: pneumococci; assay: microbe, parasite or virus in culture; format: cell-based, S. pneumoniae
[13] = test system: group A streptococci; assay: microbe, parasite or virus in culture; format: cell-based, S. pyogenes
[14] = test system: streptococci; assay: organism not typed; format: cell-based
[15] = Streptococcus pneumoniae, pneumococci, L4 mutations (27)
[16] = Metamycoplasma hominis, M. hominis (13 isolates), read-out: MIC50
[17] = Metamycoplasma hominis, M. hominis (13 isolates), read-out: MIC90

## CO/N=C(\C(=O)N[C@@H]1C(=O)N2C(C(=O)O)=C(CSc3nc(=O)c(=O)[nH]n3C)CS[C@H]12)c1csc(N)n1 [CRO, ceftriaxone]
[1]
  % Susc.: 100.0%
[1]; 62 N. meningitidis isolates
  MIC: ≤ 0.015 µg/mL
  MIC50: ≤ 0.015 µg/mL
  MIC90: ≤ 0.015 µg/mL
[2]
  nonsusceptibility: 33.3%

## C[C@H]1c2cccc(O)c2C(=O)C2=C(O)[C@]3(O)C(=O)C(C(N)=O)=C(O)[C@@H](N(C)C)[C@@H]3[C@@H](O)[C@@H]21 [Doxycycline, doxycycline]
[3]
  MIC Range: 0.016 to 0.5 µg/mL
  MIC50: 0.125 µg/mL (≈ 0.281 µM)
  MIC90: 0.5 µg/mL (≈ 1.13 µM)
[4]; M. hominis (13 isolates)
  MIC Range: ≦0.008-0.016 μg/mL
[4]; Metamycoplasma hominis
  MIC50: 0.125 µg/mL (≈ 0.281 µM)
  MIC90: 8 µg/mL (≈ 18 µM)
[4]; Metamycoplasma hominis, 2 doxycycline-resistant M. hominis isolates
  MIC: 8 to 16 µg/mL (≈ 18 to 36 µM)
[5]
  MIC Range: ≦0.008-0.031 μg/mL
[6]
  MIC Range: 0.031 to 32 µg/mL
[6]; Ureaplasma urealyticum, 4 doxycycline-resistant U. urealyticum
  MIC: 4 to 32 µg/mL (≈ 9 to 72 µM)
[6]; Ureaplasma urealyticum
  MIC50: 1 µg/mL (≈ 2.25 µM)
  MIC90: 16 µg/mL (≈ 36 µM)
[7]; 7 doxycycline-resistant Ureaplasma parvum
  MIC: 4 to 16 µg/mL (≈ 9 to 36 µM)
[7]
  MIC Range: 0.031 to 16 µg/mL
  MIC50: 8 µg/mL (≈ 18 µM)
  MIC90: 16 µg/mL (≈ 36 µM)
[8]
  MIC Range: 0.016 to 0.25 µg/mL
  MIC50: 0.125 µg/mL (≈ 0.281 µM)
  MIC90: 0.25 µg/mL (≈ 0.563 µM)

## CC[C@H]1OC(=O)[C@H](C)[C@@H](OC2CC(C)(OC)C(O)C(C)O2)[C@H](C)[C@@H](OC2OC(C)CC(N(C)C)C2O)[C@@](C)(OC)C[C@@H](C)C(=O)[C@H](C)[C@H]2N(CCCCn3cc(-c4ccccn4)nn3)C(=O)O[C@]12C (some centres unmarked) [Entry 20a]
[9]
  MIC: ≦0.0625 μg/mL
[10]
  MIC: 8 µg/mL (≈ 8.22 µM)

## CC[C@H]1OC(=O)[C@H](C)[C@@H](OC2CC(C)(OC)C(O)C(C)O2)[C@H](C)[C@@H](OC2OC(C)CC(N(C)C)C2O)[C@@](C)(OC)C[C@@H](C)C(=O)[C@H](C)[C@H]2N(CCCCn3cc(-c4cccnc4)nn3)C(=O)O[C@]12C (some centres unmarked) [Entry 20b]
[9]
  MIC: ≦0.0625 μg/mL
[10]
  MIC: 8 µg/mL (≈ 8.22 µM)

## CC[C@H]1OC(=O)[C@@](C)(F)C(=O)[C@H](C)[C@@H](OC2OC(C)CC(N(C)C)C2O)[C@@](C)(OC)C[C@@H](C)C(=O)[C@H](C)[C@H]2N(CCCCn3cc(-c4ccccn4)nn3)C(=O)O[C@]12C (some centres unmarked) [Entry 23a]
[9]
  MIC: ≦0.125 μg/mL

## CC[C@H]1OC(=O)[C@H](C)[C@@H](O[C@H]2C[C@@](C)(OC)[C@@H](O)[C@H](C)O2)[C@H](C)[C@@H](O[C@@H]2O[C@H](C)C[C@H](N(C)C)[C@H]2O)[C@](C)(O)C[C@@H](C)C(=O)[C@H](C)[C@@H](O)[C@]1(C)O [Erythromycin, erythromycin A]
[11]; Moraxella catarrhalis
  MIC90: 0.25 µg/mL (≈ 0.341 µM)
[1]; 62 N. meningitidis isolates
  MIC: 0.03 to 0.5 µg/mL (≈ 0.0409 to 0.681 µM)
  MIC50: 0.12 µg/mL (≈ 0.164 µM)
  MIC90: 0.25 µg/mL (≈ 0.341 µM)
[12]; [15]
  MIC50: > 64 µg/mL
  MIC90: > 64 µg/mL
[2]
  MIC90: > 32 µg/mL

## C[C@H]1COc2c(N3CCN(C)CC3)c(F)cc3c(=O)c(C(=O)O)cn1c23 [Levo]
[13]
  MIC50: 0.5 µg/mL (≈ 1.38 µM)
  MIC90: 0.5 µg/mL and 1 µg/mL
  MIC Range: 0.5 to 1 µg/mL and 0.5 to 2 µg/mL
[12]
  MIC50: 1 µg/mL (≈ 2.77 µM)
  MIC Range: 0.06 to 32 µg/mL
  MIC range: 1 to 32 µg/mL

## C[C@H]1COc2c(N3CCN(C)CC3)c(F)cc3c(=O)c(C(=O)O)cn1c23 [Levofloxacin, levofloxacin]
[3]
  MIC Range: ≦0.008-0.25 μg/mL
  MIC50: 0.031 µg/mL (≈ 0.0858 µM)
  MIC90: 0.125 µg/mL (≈ 0.346 µM)
[4]; M. hominis (13 isolates)
  MIC Range: 0.125 to 0.5 µg/mL
[4]; [16]
  MIC50: 0.25 µg/mL (≈ 0.692 µM)
[4]; [17]
  MIC90: 0.5 µg/mL (≈ 1.38 µM)
[5]
  MIC Range: 0.125 to 1 µg/mL
[1]
  % Res.: 0.0%
  % Susc.: 100.0%
[1]; 62 N. meningitidis isolates
  MIC: 0.008 to 0.015 µg/mL (≈ 0.0221 to 0.0415 µM)
  MIC50: ≤ 0.008 µg/mL
  MIC90: ≤ 0.008 µg/mL
[13]
  MIC90: 0.5 µg/mL (≈ 1.38 µM)
  MIC Range: 0.5 to 1 µg/mL and 0.5 µg/mL
[13]; Streptococcus pyogenes
  MIC50: 0.5 µg/mL (≈ 1.38 µM)
  MIC90: 1 µg/mL (≈ 2.77 µM)
[13]; Streptococcus pyogenes, read-out: MIC Range
  MIC: 0.5 to 2 µg/mL (≈ 1.38 to 5.53 µM)
[12]; [15]
  MIC50: 1 µg/mL (≈ 2.77 µM)
  MIC90: 2 µg/mL (≈ 5.53 µM)
[12]; Streptococcus pneumoniae, read-out: MIC range, pneumococci, L4 mutations (27)
  MIC: 0.5 to 16 µg/mL (≈ 1.38 to 44.3 µM)
[6]
  MIC Range: 0.5 to 2 µg/mL
[6]; Ureaplasma urealyticum
  MIC50: 0.5 µg/mL (≈ 1.38 µM)
  MIC90: 1 µg/mL (≈ 2.77 µM)
[7]
  MIC Range: 0.125 to 2 µg/mL
  MIC50: 0.5 µg/mL (≈ 1.38 µM)
  MIC90: 2 µg/mL (≈ 5.53 µM)
[8]
  MIC Range: 0.125 to 1 µg/mL
  MIC50: 0.5 µg/mL (≈ 1.38 µM)
  MIC90: 0.5 µg/mL (≈ 1.38 µM)
[14]
  MIC50: 1 µg/mL (≈ 2.77 µM)
  MIC90: 1 µg/mL (≈ 2.77 µM)
  MIC 90%: 2 µg/mL (≈ 5.53 µM)

## CC(=O)NC[C@H]1CN(c2ccc(N3CCOCC3)c(F)c2)C(=O)O1 [Linezolid, linezolid]
[3]
  MIC Range: 0.5 to 4 µg/mL
  MIC50: 1 µg/mL (≈ 2.96 µM)
  MIC90: 4 µg/mL (≈ 11.9 µM)
[4]; M. hominis (13 isolates)
  MIC Range: 1 to 8 µg/mL
[4]; [16]
  MIC50: 2 µg/mL (≈ 5.93 µM)
[4]; [17]
  MIC90: 4 µg/mL (≈ 11.9 µM)
[5]
  MIC Range: 4 to 128 µg/mL
[6]; Ureaplasma urealyticum
  MIC50: > 256 µg/mL
  MIC90: > 256 µg/mL
[7]
  MIC50: > 256 µg/mL
  MIC90: > 256 µg/mL
[8]
  MIC Range: 32 to 128 µg/mL
  MIC50: 64 µg/mL (≈ 190 µM)
  MIC90: 128 µg/mL (≈ 379 µM)
[2]
  MIC90: 2 µg/mL (≈ 5.93 µM)
[14]
  MIC50: 1 µg/mL (≈ 2.96 µM)
  MIC90: 2 µg/mL (≈ 5.93 µM)
  MIC 90%: 1 µg/mL (≈ 2.96 µM)
  MIC Range: 0.25 to 2 µg/mL and 0.5 to 2 µg/mL

## CN(C)c1ccc(O)c2c1C[C@H]1C[C@H]3[C@H](N(C)C)C(O)=C(C(N)=O)C(=O)[C@@]3(O)C(O)=C1C2=O [Minocycline]
[1]
  % Susc.: 100.0%
[1]; 62 N. meningitidis isolates
  MIC: 0.008 to 0.25 µg/mL (≈ 0.0175 to 0.546 µM)
  MIC50: 0.12 µg/mL (≈ 0.262 µM)
  MIC90: 0.12 µg/mL (≈ 0.262 µM)

## COc1c(N2C[C@@H]3CCCN[C@@H]3C2)c(F)cc2c(=O)c(C(=O)O)cn(C3CC3)c12 [Moxi]
[13]
  MIC50: 0.25 µg/mL (≈ 0.623 µM)
  MIC90: 0.25 µg/mL (≈ 0.623 µM)
  MIC Range: 0.125 to 0.25 µg/mL and 0.125 to 0.5 µg/mL
[12]
  MIC50: 0.25 µg/mL (≈ 0.623 µM)
  MIC Range: 0.125 to 4 µg/mL
  MIC range: 0.125 to 8 µg/mL

## CC1(C)S[C@@H]2[C@H](NC(=O)Cc3ccccc3)C(=O)N2[C@H]1C(=O)O [Pen G]
[13]
  MIC50: 0.015 µg/mL (≈ 0.0449 µM)
  MIC90: 0.015 µg/mL and 0.03 µg/mL
  MIC Range: <0.008 to 0.125 µg/mL and 0.008 to 0.015 µg/mL and <0.008 to 0.015 µg/mL and 0.015 µg/mL
[12]
  MIC50: 1 µg/mL (≈ 2.99 µM)
  MIC90: 2 µg/mL and 4 µg/mL
  MIC range: 0.015 to 8 µg/mL

## CC1(C)S[C@@H]2[C@H](NC(=O)Cc3ccccc3)C(=O)N2[C@H]1C(=O)O [Penicillin G]
[13]
  MIC50: 0.015 µg/mL (≈ 0.0449 µM)
  MIC90: 0.015 µg/mL and 0.03 µg/mL
[12]; pneumococci, L4 mutations (27)
  MIC50: 4 µg/mL (≈ 12 µM)
  MIC90: 16 µg/mL (≈ 47.8 µM)

## Amoxicillin Clavulanate
[12]; pneumococci, L4 mutations (27)
  MIC50: 4 µg/mL
  MIC90: 8 µg/mL

## amoxicillin/clavulanate
[13]
  MIC50: 0.03 µg/mL and <0.015 µg/mL and 0.015 µg/mL
  MIC90: 0.03 µg/mL and 0.06 µg/mL
  MIC Range: 0.015 to 0.03 µg/mL and 0.03 µg/mL
[12]
  MIC Range: 0.015 to 16 µg/mL
[12]; pneumococci, L4 mutations (27)
  MIC50: 4 µg/mL
  MIC90: 8 µg/mL
  MIC range: 0.125 to 8 µg/mL
[2]
  nonsusceptibility: 88.9%

## quinupristin/dalfopristin [Q/D]
[11]
  MIC 90%: 0.5 µg/mL
[2]
  MIC 90%: 1 µg/mL
  susceptible: 100.0%
[14]
  MIC 50%: 0.5 µg/mL
  MIC 90%: 0.5 µg/mL and 1 µg/mL

## trimethoprim/sulfamethoxazole [TMP/SMX]
[1]; 62 N. meningitidis isolates
  MIC 50%: 0.5 µg/mL
  MIC 90%: 2 µg/mL
  MIC Range: ≦0.06-4 μg/ml
[1]
  % Res.: 59.7%
  % Susc.: 37.1%
[2]
  nonsusceptibility: 100.0%
